In the supplement of paper PMC4862054:
Values joined by “and” are separate entries in the source; they are usually repeats but may differ in a detail not shown here. Identical values can stand only once.

These molecules were tested on BT-474 (assay: drug sensitivity score (DSS), CellTiter-Blue viability (DSS (AUC-based score)); higher = stronger viability inhibition; extreme values may be limits of the assay). Details: incubation time: 72 h.
Procedure: (§1)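 DSRT with the CellTiter-Blue (resazurin reduction) viability readout, fluorescence 560/590 nm, 72 h incubation. Plates were normalised to DMSO and benzethonium chloride controls. DSS is computed from the area under the fitted dose-response curve (5 or 9 concentrations).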
Molecule `Nc1nc(F)nc2c1ncn2[C@@H]1O[C@H](CO)[C@@H](O)[C@@H]1O` [Fludarabine] has a drug sensitivity score of 0. Molecule `O=C(/C=C/c1cccnc1)NCCCCC1CCN(C(=O)c2ccccc2)CC1` [FK-866] has a drug sensitivity score of 9.11. `CC[C@@H]1C(=O)N(C)c2cnc(Nc3ccc(C(=O)NC4CCN(C)CC4)cc3OC)nc2N1C1CCCC1` [BI 2536] gave a drug sensitivity score of 0. `O=C(O)C1(C(=O)O)CCC1.[NH2-].[NH2-].[Pt+2]` [Carboplatin] was tested, and the drug sensitivity score was 0. `C1CN1c1nc(N2CC2)nc(N2CC2)n1` [Triethylenemelamine] showed a drug sensitivity score of 0. Work on `NCCCNCCSP(=O)(O)O` [Amifostine] yielded a drug sensitivity score of 0. With `C=CC(=O)N1CCC[C@@H](n2nc(-c3ccc(Oc4ccccc4)cc3)c3c(N)ncnc32)C1` the drug sensitivity score was 12.7. `Cc1cnc(NC(=O)Nc2cc(Br)c(C)cc2OC[C@@H]2CNCCO2)cn1` showed a drug sensitivity score of 0. Work on `CC(=O)Nc1cccc(-n2c(=O)n(C3CC3)c(=O)c3c(Nc4ccc(I)cc4F)n(C)c(=O)c(C)c32)c1` yielded a drug sensitivity score of 0. For `CC[C@H](Nc1ncnc2[nH]cnc12)c1nc2cccc(F)c2c(=O)n1-c1ccccc1` [CAL-101], the drug sensitivity score was 0.

What follows are molecules tested on BT-549 in the same assay as above. Details: incubation time: 72 h.
Procedure: as §1
Work on `Nc1nc(F)nc2c1ncn2[C@@H]1O[C@H](CO)[C@@H](O)[C@@H]1O` [Fludarabine] yielded a drug sensitivity score of 0.397. In the case of `Nc1ncn([C@H]2C[C@H](O)[C@@H](CO)O2)c(=O)n1` [Decitabine], the drug sensitivity score is reported as 4.59 and 2.2. `O=C(/C=C/c1cccnc1)NCCCCC1CCN(C(=O)c2ccccc2)CC1` [FK-866] gave a drug sensitivity score of 23.9. `CC[C@@H]1C(=O)N(C)c2cnc(Nc3ccc(C(=O)NC4CCN(C)CC4)cc3OC)nc2N1C1CCCC1` [BI 2536] was tested, and the drug sensitivity score was 21.3. `O=C(O)C1(C(=O)O)CCC1.[NH2-].[NH2-].[Pt+2]` [Carboplatin] was tested, and the drug sensitivity score was 0. `C1CN1c1nc(N2CC2)nc(N2CC2)n1` [Triethylenemelamine] gave a drug sensitivity score of 1.53. `NCCCNCCSP(=O)(O)O` [Amifostine] gave a drug sensitivity score of 0. For `C=CC(=O)N1CCC[C@@H](n2nc(-c3ccc(Oc4ccccc4)cc3)c3c(N)ncnc32)C1`, the drug sensitivity score was 0. `Cc1cnc(NC(=O)Nc2cc(Br)c(C)cc2OC[C@@H]2CNCCO2)cn1` showed a drug sensitivity score of 0. In the case of `CC(=O)Nc1cccc(-n2c(=O)n(C3CC3)c(=O)c3c(Nc4ccc(I)cc4F)n(C)c(=O)c(C)c32)c1`, the drug sensitivity score is reported as 0. `CC[C@H](Nc1ncnc2[nH]cnc12)c1nc2cccc(F)c2c(=O)n1-c1ccccc1` [CAL-101] gave a drug sensitivity score of 1.74.

What follows are molecules tested on CAL-120 in the same assay as above. Details: incubation time: 72 h.
Procedure: as §1
Molecule `Nc1nc(F)nc2c1ncn2[C@@H]1O[C@H](CO)[C@@H](O)[C@@H]1O` [Fludarabine] has a drug sensitivity score of 0. In the case of `Nc1ncn([C@H]2C[C@H](O)[C@@H](CO)O2)c(=O)n1` [Decitabine], the drug sensitivity score is reported as 0. `O=C(/C=C/c1cccnc1)NCCCCC1CCN(C(=O)c2ccccc2)CC1` [FK-866] was tested, and the drug sensitivity score was 19.4. `CC[C@@H]1C(=O)N(C)c2cnc(Nc3ccc(C(=O)NC4CCN(C)CC4)cc3OC)nc2N1C1CCCC1` [BI 2536] gave a drug sensitivity score of 21.6. With `O=C(O)C1(C(=O)O)CCC1.[NH2-].[NH2-].[Pt+2]` [Carboplatin] the drug sensitivity score was 0. Work on `C1CN1c1nc(N2CC2)nc(N2CC2)n1` [Triethylenemelamine] yielded a drug sensitivity score of 0. For `NCCCNCCSP(=O)(O)O` [Amifostine], the drug sensitivity score was 0. In the case of `C=CC(=O)N1CCC[C@@H](n2nc(-c3ccc(Oc4ccccc4)cc3)c3c(N)ncnc32)C1`, the drug sensitivity score is reported as 0. `Cc1cnc(NC(=O)Nc2cc(Br)c(C)cc2OC[C@@H]2CNCCO2)cn1` gave a drug sensitivity score of 0. Work on `CC(=O)Nc1cccc(-n2c(=O)n(C3CC3)c(=O)c3c(Nc4ccc(I)cc4F)n(C)c(=O)c(C)c32)c1` yielded a drug sensitivity score of 8.88. `CC[C@H](Nc1ncnc2[nH]cnc12)c1nc2cccc(F)c2c(=O)n1-c1ccccc1` [CAL-101] showed a drug sensitivity score of 1.02.

The molecules below were run on CAL-148 in the same assay as above. Details: incubation time: 72 h.
Procedure: as §1
`Nc1nc(F)nc2c1ncn2[C@@H]1O[C@H](CO)[C@@H](O)[C@@H]1O` [Fludarabine] gave a drug sensitivity score of 0. Molecule `O=C(/C=C/c1cccnc1)NCCCCC1CCN(C(=O)c2ccccc2)CC1` [FK-866] has a drug sensitivity score of 9.58. For `CC[C@@H]1C(=O)N(C)c2cnc(Nc3ccc(C(=O)NC4CCN(C)CC4)cc3OC)nc2N1C1CCCC1` [BI 2536], the drug sensitivity score was 19.7. With `O=C(O)C1(C(=O)O)CCC1.[NH2-].[NH2-].[Pt+2]` [Carboplatin] the drug sensitivity score was 2.02. Work on `C1CN1c1nc(N2CC2)nc(N2CC2)n1` [Triethylenemelamine] yielded a drug sensitivity score of 0.801. For `NCCCNCCSP(=O)(O)O` [Amifostine], the drug sensitivity score was 0. With `C=CC(=O)N1CCC[C@@H](n2nc(-c3ccc(Oc4ccccc4)cc3)c3c(N)ncnc32)C1` the drug sensitivity score was 0. With `Cc1cnc(NC(=O)Nc2cc(Br)c(C)cc2OC[C@@H]2CNCCO2)cn1` the drug sensitivity score was 0. For `CC(=O)Nc1cccc(-n2c(=O)n(C3CC3)c(=O)c3c(Nc4ccc(I)cc4F)n(C)c(=O)c(C)c32)c1`, the drug sensitivity score was 0. `CC[C@H](Nc1ncnc2[nH]cnc12)c1nc2cccc(F)c2c(=O)n1-c1ccccc1` [CAL-101] was tested, and the drug sensitivity score was 0.

What follows are molecules tested on CAL-51 in the same assay as above. Details: incubation time: 72 h.
Procedure: as §1
Work on `Nc1nc(F)nc2c1ncn2[C@@H]1O[C@H](CO)[C@@H](O)[C@@H]1O` [Fludarabine] yielded a drug sensitivity score of 0. Work on `O=C(/C=C/c1cccnc1)NCCCCC1CCN(C(=O)c2ccccc2)CC1` [FK-866] yielded a drug sensitivity score of 14.5. For `CC[C@@H]1C(=O)N(C)c2cnc(Nc3ccc(C(=O)NC4CCN(C)CC4)cc3OC)nc2N1C1CCCC1` [BI 2536], the drug sensitivity score was 20.7. `O=C(O)C1(C(=O)O)CCC1.[NH2-].[NH2-].[Pt+2]` [Carboplatin] gave a drug sensitivity score of 1.03. `C1CN1c1nc(N2CC2)nc(N2CC2)n1` [Triethylenemelamine] showed a drug sensitivity score of 0. `NCCCNCCSP(=O)(O)O` [Amifostine] showed a drug sensitivity score of 0. In the case of `C=CC(=O)N1CCC[C@@H](n2nc(-c3ccc(Oc4ccccc4)cc3)c3c(N)ncnc32)C1`, the drug sensitivity score is reported as 0. `Cc1cnc(NC(=O)Nc2cc(Br)c(C)cc2OC[C@@H]2CNCCO2)cn1` gave a drug sensitivity score of 0. In the case of `CC(=O)Nc1cccc(-n2c(=O)n(C3CC3)c(=O)c3c(Nc4ccc(I)cc4F)n(C)c(=O)c(C)c32)c1`, the drug sensitivity score is reported as 7.72. In the case of `CC[C@H](Nc1ncnc2[nH]cnc12)c1nc2cccc(F)c2c(=O)n1-c1ccccc1` [CAL-101], the drug sensitivity score is reported as 0.

Each molecule was assayed on CAL-85-1 in the same assay as above. Details: incubation time: 72 h.
Procedure: as §1
`Nc1nc(F)nc2c1ncn2[C@@H]1O[C@H](CO)[C@@H](O)[C@@H]1O` [Fludarabine] showed a drug sensitivity score of 0. With `Nc1ncn([C@H]2C[C@H](O)[C@@H](CO)O2)c(=O)n1` [Decitabine] the drug sensitivity score was 0. `O=C(/C=C/c1cccnc1)NCCCCC1CCN(C(=O)c2ccccc2)CC1` [FK-866] gave a drug sensitivity score of 9.18. In the case of `CC[C@@H]1C(=O)N(C)c2cnc(Nc3ccc(C(=O)NC4CCN(C)CC4)cc3OC)nc2N1C1CCCC1` [BI 2536], the drug sensitivity score is reported as 14.7. `O=C(O)C1(C(=O)O)CCC1.[NH2-].[NH2-].[Pt+2]` [Carboplatin] was tested, and the drug sensitivity score was 0. Molecule `C1CN1c1nc(N2CC2)nc(N2CC2)n1` [Triethylenemelamine] has a drug sensitivity score of 0. For `NCCCNCCSP(=O)(O)O` [Amifostine], the drug sensitivity score was 0. `C=CC(=O)N1CCC[C@@H](n2nc(-c3ccc(Oc4ccccc4)cc3)c3c(N)ncnc32)C1` showed a drug sensitivity score of 5.07. `Cc1cnc(NC(=O)Nc2cc(Br)c(C)cc2OC[C@@H]2CNCCO2)cn1` showed a drug sensitivity score of 0. In the case of `CC(=O)Nc1cccc(-n2c(=O)n(C3CC3)c(=O)c3c(Nc4ccc(I)cc4F)n(C)c(=O)c(C)c32)c1`, the drug sensitivity score is reported as 12.1. With `CC[C@H](Nc1ncnc2[nH]cnc12)c1nc2cccc(F)c2c(=O)n1-c1ccccc1` [CAL-101] the drug sensitivity score was 0.

These molecules were tested on DU-4475 in the same assay as above. Details: incubation time: 72 h.
Procedure: as §1
Work on `Nc1nc(F)nc2c1ncn2[C@@H]1O[C@H](CO)[C@@H](O)[C@@H]1O` [Fludarabine] yielded a drug sensitivity score of 0. In the case of `Nc1ncn([C@H]2C[C@H](O)[C@@H](CO)O2)c(=O)n1` [Decitabine], the drug sensitivity score is reported as 4.16 and 2.07. `O=C(/C=C/c1cccnc1)NCCCCC1CCN(C(=O)c2ccccc2)CC1` [FK-866] showed a drug sensitivity score of 19.8. `CC[C@@H]1C(=O)N(C)c2cnc(Nc3ccc(C(=O)NC4CCN(C)CC4)cc3OC)nc2N1C1CCCC1` [BI 2536] gave a drug sensitivity score of 19.3. `O=C(O)C1(C(=O)O)CCC1.[NH2-].[NH2-].[Pt+2]` [Carboplatin] was tested, and the drug sensitivity score was 0. With `C1CN1c1nc(N2CC2)nc(N2CC2)n1` [Triethylenemelamine] the drug sensitivity score was 0. `NCCCNCCSP(=O)(O)O` [Amifostine] gave a drug sensitivity score of 0. `C=CC(=O)N1CCC[C@@H](n2nc(-c3ccc(Oc4ccccc4)cc3)c3c(N)ncnc32)C1` showed a drug sensitivity score of 0. `Cc1cnc(NC(=O)Nc2cc(Br)c(C)cc2OC[C@@H]2CNCCO2)cn1` was tested, and the drug sensitivity score was 0. With `CC(=O)Nc1cccc(-n2c(=O)n(C3CC3)c(=O)c3c(Nc4ccc(I)cc4F)n(C)c(=O)c(C)c32)c1` the drug sensitivity score was 39.6. Molecule `CC[C@H](Nc1ncnc2[nH]cnc12)c1nc2cccc(F)c2c(=O)n1-c1ccccc1` [CAL-101] has a drug sensitivity score of 2.91.

Each molecule was assayed on HCC1143 in the same assay as above. Details: incubation time: 72 h.
Procedure: as §1
`Nc1nc(F)nc2c1ncn2[C@@H]1O[C@H](CO)[C@@H](O)[C@@H]1O` [Fludarabine] was tested, and the drug sensitivity score was 0. For `Nc1ncn([C@H]2C[C@H](O)[C@@H](CO)O2)c(=O)n1` [Decitabine], the drug sensitivity score was 5.09 and 8.28. `O=C(/C=C/c1cccnc1)NCCCCC1CCN(C(=O)c2ccccc2)CC1` [FK-866] was tested, and the drug sensitivity score was 22.2.
